Among the data in BindingDB's records for doi:10.1021/acs.jnatprod.8b00574 (Institute of Medicinal and Aromatic Plants, 2018) are IC50 values, retold here.

Experiment [1] can be described thus: Inhibition of thrombin in human platelet rich plasma assessed as reduction in arachidonic acid-induced platelet aggregation after 5 mins.
The nature of experiment [2]: Inhibition of thrombin in human platelet rich plasma assessed as reduction in thrombin-induced platelet aggregation after 5 mins.
Experiment [3] in a line: Inhibition of thrombin in human washed platelets assessed as reduction in thrombin-induced platelet aggregation after 5 mins.
Experiment [4] is described as follows: Inhibition of thrombin in human platelet rich plasma assessed as reduction in ADP-induced platelet aggregation after 5 mins.

Structures are written as SMILES. pIC50: −log10 of the molar value.

One may read the pIC50 as −log10 of the IC50, conventionally taken in molar units. With `CC[C@H](CC[C@@H](C)[C@H]1CC[C@H]2[C@@H]3CC=C4C[C@@H](O)CC[C@]4(C)[C@H]3CC[C@]12C)C(C)C` [stigmast-5-en-3beta-ol], the negative-log IC50 (pIC50) in experiment [1] was 2.82; in experiment [2], 4.98; in experiment [3], 5.04; in experiment [4], 2.82.
